In brackets after ≈: the same amount, converted by molar mass. Like-named read-outs stand apart in the source and are kept apart here.
Legend:
[1] = Saturation solubility according to the concentration of cyclodextrin derivative; assay type: physicochemical; details: for solubility at 6 h: aqueous with cosolvent or surfactant or cyclodextrin; for solubility at 6 h / solubility: thermodynamic from solid, water for injection, room temperature; for solubility: water for injection without cyclodextrin, water, 0 % W/V cyclodextrin derivative (Comparative Example, no cyclodextrin)
Description: 2-Hydroxypropyl-β-cyclodextrin (trade name: Cavitron) and sulfobutyl ether-β-cyclodextrin sodium salt (trade name: Captisol) as cyclodextrin compounds were each dissolved in water for injection at various concentrations as shown in Table 1. To this was added an excess amount of carbamic acid (R)-1-(2-chlorophenyl)-2-tetrazol-2-yl)ethyl ester, and the mixture was stirred at room temperature for 6 hours. The mixture was then filtered through a membrane filter to remove insolubles, and the amount of carbamic acid (R)-1-(2-chlorophenyl)-2-tetrazol-2-yl)ethyl ester in the filtrate was measured by high performance liquid chromatography, by which the saturation solubility was calculated. The column used in this experiment was a 75×4.6 mm, 3.5 μm C18 column, and the mobile phase was a mixed solution of 20% by volume of acetonitrile and 80% by volume of 10 mM phosphate buffer (pH 3.0). The flow rate was 2.0 mL/min, and detection was performed at 215 nm.
As a comparative example, the saturation solubility of carbamic acid (R)-1-(2-chlorophenyl)-2-tetrazol-2-yl)ethyl ester to which no cyclodextrin compound had been added was measured at room temperature.
The calculated saturation solubility values are shown in Table 1, and the same results are shown graphically in FIG. 1.

[2] = Saturation solubility according to pH change; assay type: physicochemical; details: for solubility at 12 h: thermodynamic from solid
Description: The solubility of carbamic acid (R)-1-(2-chlorophenyl)-2-tetrazol-2-yl)ethyl ester in various aqueous (water) solvent conditions was measured: (1) purified water, (2) pH 1 hydrochloric acid solution, and (3) pH 3 to 8 phosphate buffer solution. Specifically, about 50 mg of carbamic acid (R)-1-(2-chlorophenyl)-2-tetrazol-2-yl)ethyl ester was placed in a suitable glass vial and 15 mL of solvent was added. The mixture was slowly stirred at room temperature for 12 hours on a rotary stirrer to reach equilibrium. Two samples for each aqueous solvent were transferred to a microtube, and centrifuged, and the pH was measured by taking the supernatant. After dilution with diluted solution for analysis, the concentration was analyzed using high performance liquid chromatography under the same conditions as in Experimental Example 1 above.

With NC(=O)O[C@@H](Cn1ncnn1)c1ccccc1Cl [carbamic acid (R)-1-(2-chlorophenyl)-2-tetrazol-2-yl)ethyl ester] the “Solubility when cyclodextrin compound was added, compared with comparative example without cyclodextrin” value ([1]; Cavitron or Captisol added, in words) was “significantly improved”, the solubility at 6 h ([1]; Captisol 10 % W/V) was 12.8 mg/mL (≈ 47.8 mM) and the solubility at 6 h ([1]; Captisol 15 % W/V) was 18 mg/mL (≈ 67.2 mM). For the same compound, the solubility at 6 h ([1]; Captisol 20 % W/V) was 24.5 mg/mL (≈ 91.5 mM), the solubility at 6 h ([1]; Captisol 30 % W/V) was 32.5 mg/mL (≈ 121 mM) and the solubility at 6 h ([1]; Captisol 40 % W/V) was 45.1 mg/mL (≈ 168 mM). For the same compound, the solubility at 6 h ([1]; Captisol (sulfobutyl ether-β-cyclodextrin sodium salt) 5 % W/V) was 6.7 mg/mL, the solubility at 6 h ([1]; Cavitron 10 % W/V) was 13.2 mg/mL (≈ 49.3 mM) and the solubility at 6 h ([1]; Cavitron 15 % W/V) was 19.8 mg/mL (≈ 74 mM). It also gave a solubility at 6 h ([1]; Cavitron 20 % W/V) of 27.9 mg/mL (≈ 104 mM), a solubility at 6 h ([1]; Cavitron 30 % W/V) of 38.6 mg/mL (≈ 144 mM) and a solubility at 6 h ([1]; Cavitron 40 % W/V) of 49.5 mg/mL (≈ 185 mM). It also gave a solubility at 6 h ([1]; Cavitron (2-hydroxypropyl-β-cyclodextrin) 5 % W/V) of 5.5 mg/mL (≈ 20.5 mM), a solubility ([1]; Captisol column) of 1800 µg/mL (≈ 6.72 mM) and a solubility ([1]; Cavitron column) of 1800 µg/mL (≈ 6.72 mM). It also gave a solubility at 12 h ([2]; pH 1 hydrochloric acid solution, pH 1, simulated gastric fluid, pH 1 hydrochloric acid solution, room temperature, read-out: Concentration (saturation solubility), Mean) of 1950 µg/mL (≈ 7.28 mM), a solubility at 12 h ([2]; pH 1 hydrochloric acid solution, pH 1, simulated gastric fluid, pH 1 hydrochloric acid solution, room temperature, read-out: Concentration (saturation solubility), Test solution 1) of 1940 µg/mL (≈ 7.25 mM) and a solubility at 12 h ([2]; pH 1 hydrochloric acid solution, pH 1, simulated gastric fluid, pH 1 hydrochloric acid solution, room temperature, read-out: Concentration (saturation solubility), Test solution 2) of 1970 µg/mL (≈ 7.36 mM). The “Effect of change in pH on solubility” value ([2]; pH 1 to 8 aqueous solvents, in words) was “not greatly affected by the change in pH”, the solubility at 12 h ([2]; pH 3.0 phosphate buffer solution, pH 3, aqueous buffer, pH 3.0 phosphate buffer solution, final pH 3.1, room temperature, read-out: Concentration (saturation solubility), Mean) was 1870 µg/mL (≈ 6.99 mM) and the solubility at 12 h ([2]; pH 3.0 phosphate buffer solution, pH 3, aqueous buffer, pH 3.0 phosphate buffer solution, final pH 3.1, room temperature, read-out: Concentration (saturation solubility), Test solution 1) was 1870 µg/mL (≈ 6.99 mM). It also gave a solubility at 12 h ([2]; pH 3.0 phosphate buffer solution, pH 3, aqueous buffer, pH 3.0 phosphate buffer solution, final pH 3.1, room temperature, read-out: Concentration (saturation solubility), Test solution 2) of 1860 µg/mL (≈ 6.95 mM), a solubility at 12 h ([2]; pH 5.0 phosphate buffer solution, pH 5, aqueous buffer, pH 5.0 phosphate buffer solution, final pH 5.0, room temperature, read-out: Concentration (saturation solubility), Mean) of 1910 µg/mL (≈ 7.14 mM) and a solubility at 12 h ([2]; pH 5.0 phosphate buffer solution, pH 5, aqueous buffer, pH 5.0 phosphate buffer solution, final pH 5.0, room temperature, read-out: Concentration (saturation solubility), Test solution 1) of 1910 µg/mL (≈ 7.14 mM). The solubility at 12 h ([2]; pH 5.0 phosphate buffer solution, pH 5, aqueous buffer, pH 5.0 phosphate buffer solution, final pH 5.0, room temperature, read-out: Concentration (saturation solubility), Test solution 2) was 1910 µg/mL (≈ 7.14 mM), the solubility at 12 h ([2]; pH 6.5 phosphate buffer solution, pH 6.5, aqueous buffer, pH 6.5 phosphate buffer solution, final pH 6.6, room temperature, read-out: Concentration (saturation solubility), Mean) was 1860 µg/mL (≈ 6.95 mM) and the solubility at 12 h ([2]; pH 6.5 phosphate buffer solution, pH 6.5, aqueous buffer, pH 6.5 phosphate buffer solution, final pH 6.6, room temperature, read-out: Concentration (saturation solubility), Test solution 1) was 1860 µg/mL (≈ 6.95 mM). For the same compound, the solubility at 12 h ([2]; pH 6.5 phosphate buffer solution, pH 6.5, aqueous buffer, pH 6.5 phosphate buffer solution, final pH 6.6, room temperature, read-out: Concentration (saturation solubility), Test solution 2) was 1860 µg/mL (≈ 6.95 mM), the solubility at 12 h ([2]; pH 8.0 phosphate buffer solution, pH 8, aqueous buffer, pH 8.0 phosphate buffer solution, final pH 8.0, room temperature, read-out: Concentration (saturation solubility), Mean) was 1810 µg/mL (≈ 6.76 mM) and the solubility at 12 h ([2]; pH 8.0 phosphate buffer solution, pH 8, aqueous buffer, pH 8.0 phosphate buffer solution, final pH 8.0, room temperature, read-out: Concentration (saturation solubility), Test solution 1) was 1800 µg/mL (≈ 6.72 mM). The solubility at 12 h ([2]; pH 8.0 phosphate buffer solution, pH 8, aqueous buffer, pH 8.0 phosphate buffer solution, final pH 8.0, room temperature, read-out: Concentration (saturation solubility), Test solution 2) was 1820 µg/mL (≈ 6.8 mM), the solubility at 12 h ([2]; purified water, pH 6.2, water, Purified water, final pH 6.2, room temperature, read-out: Concentration (saturation solubility), Mean) was 1800 µg/mL (≈ 6.72 mM) and the solubility at 12 h ([2]; purified water, pH 6.2, water, Purified water, final pH 6.2, room temperature, read-out: Concentration (saturation solubility), Test solution 1) was 1800 µg/mL (≈ 6.72 mM). It also gave a solubility at 12 h ([2]; purified water, pH 6.2, water, Purified water, final pH 6.2, room temperature, read-out: Concentration (saturation solubility), Test solution 2) of 1810 µg/mL (≈ 6.76 mM).
